Assay: Release of compound 1 in artificial tear medium from dialysis tubes into artificial tear fluid, quantified via HPLC
Type: physicochemical
Settings: room temperature, 100 rpm
Protocol: 0.5 mL of unformulated compound 1 dissolved in artificial tear medium (i.e., equivalent to physiological buffer solution/PBS) was filled into dialysis tubes (Spectra/Por® Biotech CE MWCO 100-500, 10 mm), sealed and immersed into containers filled with 5 mL artificial tear fluid (ATF) serving as release medium (Table 2). The samples were incubated at room temperature and shaken at 100 rpm. After 0 hours, 0.5 hours, 1 hour, 2 hours, 4 hours and 24 hours, samples were withdrawn and the amount of released compound 1 was quantified via HPLC.

## CC/C=C\C[C@H](O)\C=C/C=C/C=C/[C@H](O)C/C=C\C/C=C\CCC(=O)[O-].[Na+] [Compound 1, Sodium (4Z,7Z,10R,11E,13E,15Z,17S, 19Z)-10,17-dihydroxydocosa-4,7,11,13,15,19-hexaenoate]
Time point 0.5 h
  Release (%): 0.8%
Time point 1 h
  Release (%): 2%
Time point 2 h
  Release (%): 7%
Time point 4 h
  Release (%): 17%
Time point 24 h
  Release (%): 59%

From patent US20250381161A1, “COMPOSITIONS AND METHODS FOR TREATING HEARING AND OCULAR DISORDERS” (Anida Pharma Inc., priority 2022, published 2025)
